Laboratory results from US6956034B2, “Oxazin(ethyl)one compounds used as fungicides” (BASF Aktiengesellschaft, priority 2001, dated 2005).

Experiments:
[1] = system: mildew of cucumbers (Sphaerotheca fuliginea); test: Protective activity against mildew of cucumbers; type: in vivo; conditions: cucumber seedlings; for percentage of infection of leaves at the prescribed concentration of active compound: sprayed 20 h before inoculation, 7 days, untreated 90
Procedure: The active compounds were used as aqueous preparations of active compounds which contained the active compound in a concentration of 250 ppm, 63 ppm, 16 ppm and 4 ppm, respectively. The aqueous preparation of active compound was prepared by diluting a stock solution of 10% by weight of active compound, 63% by weight of cyclohexanone and 27% by weight of emulsifier (20 parts by weight of Nekanil® LN (Lutensol® AP6, wetting agent having emulsifying and dispersing action based on ethoxylated alkylphenols) and 10 parts by weight of Wettol® EM (nonionic emulsifier based on ethoxylated castor oil)) with water in the amount required for the desired concentration.
Leaves of cucumber seedlings of the cultivar “Chinesische Schlange” which had been grown in pots were, at the cotyledon stage, sprayed to runoff point with an aqueous preparation of active compound. 20 hours after the spray coating had dried on, the plants were inoculated with an aqueous spore suspension of mildew of cucumbers (Sphaerotheca fuliginea). The plants were then cultivated in a greenhouse at 20-24° C. and 60-80% relative atmospheric humidity for 7 days. The extent of the mildew development was then determined visually in % infection of the cotyledon area.

[2] = system: mildew of wheat (Erysiphe [syn. Blumeria] graminis forma specialis tritici); test: Protective activity against mildew of wheat; type: in vivo; conditions: wheat seedlings, sprayed 24 h before inoculation, 7 days, untreated 85
Procedure: The active compounds were used as aqueous preparations of active compounds which contained the active compound in a concentration of 250 ppm, 63 ppm, 16 ppm and 4 ppm, respectively. The aqueous preparation of active compound was prepared by diluting a stock solution of 10% by weight of active compound, 63% by weight of cyclohexanone and 27% by weight of emulsifier (20 parts by weight of Nekanil® LN (Lutensol® AP6, wetting agent having emulsifying and dispersing action based on ethoxylated alkylphenols) and 10 parts by weight of Wettol® EM (nonionic emulsifier based on ethoxylated castor oil)) with water in the amount required for the desired concentration. The first fully developed leaves of the wheat seedlings of the variety “Kanzler” which had been grown in pots were sprayed to runoff point with an aqueous preparation of active compound prepared from a stock solution containing 10% of active compound, […]. 24 hours after the spray coating had dried on, the plants were inoculated with an aqueous spore suspension of mildew of wheat (Erysiphe [syn. Blumeria] graminis forma specialis. tritici). The plants were then cultivated in a greenhouse at 20-24° C. and 60-90% relative atmospheric humidity. After 7 days the extent of the mildew development was determined visually in % infection of the leaves.

SMILES	infection of the cotyledon area ([1]; 4 ppm, untreated plants 90% infected)	percentage of infection of leaves at the prescribed concentration of active compound ([2]; 16 ppm) [%]	percentage of infection of leaves at the prescribed concentration of active compound ([2]; 63 ppm) [%]	percentage of infection of leaves at the prescribed concentration of active compound ([2]; 250 ppm) [%]	percentage of infection of leaves at the prescribed concentration of active compound ([1]; 16 ppm) [%]	percentage of infection of leaves at the prescribed concentration of active compound ([1]; 63 ppm) [%]	percentage of infection of leaves at the prescribed concentration of active compound ([1]; 250 ppm) [%]
CCCn1c(=NOC)oc2ccc(Cl)cc2c1=O [Compound I - A1.2, O-Methyl (6-chloro-3-propyl-4H-1,3-benz[e]oxazin-4(3H)-one)-2-oxime]	no infection	–	–	–	–	–	–
CCCn1c(=NOC)oc2ccc(Cl)cc2c1=O [I - A1.2]	–	0	0	0	0	0	0
CCCn1c(=NOC)oc2ccc(I)cc2c1=O [I - A1.4]	–	0	0	0	0	0	0
CCCn1c(=NOCC)oc2ccc(I)cc2c1=O [I - A1.8]	–	0	0	0	0	0	0
CCCON=c1oc2ccc(I)cc2c(=O)n1CCC [I - A1.12]	–	0	0	0	0	0	0
CCCCn1c(=NOC)oc2ccc(I)cc2c1=O [I - A1.20]	–	0	0	0	0	0	0
CCCCn1c(=NOCC)oc2ccc(I)cc2c1=O [I - A1.24]	–	0	0	0	0	0	0
CCCCn1c(=NOCCC)oc2ccc(I)cc2c1=O [I - A1.28]	–	0	0	0	0	0	0
CON=c1oc2ccc(I)cc2c(=O)n1CC1CC1 [I - A1.68]	–	0	0	0	0	0	0
CCON=c1oc2ccc(I)cc2c(=O)n1CC1CC1 [I - A1.72]	–	0	0	0	0	0	0
CCCON=c1oc2ccc(I)cc2c(=O)n1CC1CC1 [I - A1.76]	–	0	0	0	0	0	0
CCCn1c(=NOC)oc2ccc(C)cc2c1=O [I - A1.132]	–	–	–	–	10	10	0
CCCn1c(=NOC)oc2ccc(OC)cc2c1=O [I - A1.133]	–	20	0	0	10	5	0
CC(C)ON=c1oc2ccc(I)cc2c(=O)n1CC1CC1 [I - A1.134]	–	0	0	0	0	0	0
O=c1c2cc(I)ccc2oc(=NOCC2CC2)n1CC1CC1 [I - A1.135]	–	5	0	0	3	0	0
CCCCn1c(=NOCC2CC2)oc2ccc(I)cc2c1=O [I - A1.136]	–	0	0	0	0	0	0
CCCn1c(=NOCC2CC2)oc2ccc(I)cc2c1=O [I - A1.137]	–	0	0	0	0	0	0
CCCCn1c(=NOC(C)C)oc2ccc(I)cc2c1=O [I - A1.138]	–	0	0	0	0	0	0
CCCn1c(=NOC(C)C)oc2ccc(I)cc2c1=O [I - A1.139]	–	0	0	0	0	0	0
